According to patent US10280179B2, “Spiroquinoxaline derivatives as inhibitors of non-apoptotic regulated cell-death” (Helmholtz Zentrum Munchen—Deutches Forschungszentrum Fur …, priority 2013, dated 2019):
pIC50: −log10 of the molar value. Like-named read-outs stand apart in the source and are kept apart here.

What was measured:
Assay type in all cases: cell-based
[1] = tested on: mouse hippocampal cell line (Ht22); assay: Inhibition of glutamate-induced non-apoptotic cell death (Example B.2); conditions: HT-22, Ht22 cells
Method in brief: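 Ht22 cells (2,000/well, DMEM/10% FBS) seeded together with 5 mM glutamate and compound (0.5 pM to 100 μM, triplicate), incubated 72 h at 37 °C/5% CO2. Cell survival then quantified; glutamate alone as negative control, alpha-tocopherol as positive control.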

Pfa1 cells = assay: Inhibition of non-apoptotic cell death after tamoxifen-induced GPx4 knockout in a recombinant cell line (Example B.4); conditions: Mus musculus, read-out: Pfa1/TAM IC50
Method in brief: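 Immortalised murine fibroblasts with tamoxifen-inducible CreERT2 for ablation of both GPx4 copies (Pfa1 cells) received tamoxifen on day 0 together with test compound. Cell survival was measured by AlamarBlue after 72 hours.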

[2] = Cellular toxicity, same assay as Example B.4 without TAM (Example B.5); conditions: mouse; Pfa1 cells without TAM; read-out: TC50 (the source's name)
From the text: Cellular Toxicity of Compounds of the Invention
An estimate of the toxicity for compounds of the invention was obtained by using the same assay as described in Example B.4, but without the addition of TAM. […] Such TC50 values obtained for certain compounds disclosed herein, together with an approximate therapeutic window (estimated by dividing each TC50 by the corresponding IC50 determined from example B.4) are shown in Table 3.

[3] = tested on: human neuroblastoma cell line SH-SY5Y; assay: Inhibition of BSO-induced non-apoptotic cell death (Example B.1); conditions: SH-SY5Y cells, 72 hours
From the text: Inhibition of BSO-Induced Non-Apoptotic Cell Death by Compounds Disclosed Herein
L-Buthionine sulfoximine (BSO) is a well-known glutathione (GSH) depletory, which inhibits gamma-glutamyl-cysteine-synthetase, the enzyme catalyzing the rate-limiting step in GSH biosynthesis. The human neuroblastoma cell line SH-SY5Y is sensitive to BSO-induced intracellular glutathione depletion, which causes high levels of reactive oxygen species (ROS) and cellular stress mimicking cellular conditions following ischemia (cf., e.g., Yamada et al., Neurochem. Int. 59:1003-9 (2011)).
Compounds disclosed herein were evaluated for their ability to promote cell survival upon administration of a lethal dose of BSO to cell-culture medium. Briefly, SH-SY5Y cells (ATCC® CRL-2266™) were propagated in DMEM supplemented with 10% FBS/1% Penicillin-Streptomycin, and then seeded onto 96-well plates at a concentration of 750 cells/well in 100 μL of media, to which BSO (Sigma Aldrich) was added (to a final concentration of 50 μM) together with increasing concentrations of the compound to be tested, and the plates incubated at 37° C./5% CO2 for 72 hours. Compound dilutions (0.5 pM to 100 μM) were prepared from 10 mM stocks dissolved in DMSO and diluted in media. Cells treated with BSO alone were used as negative control and alpha-Tocopherol (Sigma Aldrich) was used as positive control. Compound concentrations were tested in triplicate. After incubation, cell survival was detected using the live/dead cell assay AquaBluer™ (MultiTarget Pharmaceuticals) and quantified using a fluorescence plate reader (excitation filter: 530-560 nm/emission filter: 590 nm) (SpectraMax M4; Molecular Devices). Fluorescence data so obtained was normalised to the percentage of surviving cells and IC50 values calculated using the GraphPad Prism (GraphPad Software, Inc) software package.

[4] = glutamate-induced cell death, read-out: Ht22/GLU
[5] = 50 μM BSO, read-out: SH-SY5Y/BSO IC50

SMILES	pIC50 [1, 4]	pIC50 (Pfa1 cells)	CC50 [2]	pIC50 [3, 5]	pIC50 ([1]; glutamate 5 mM, 72 hours, cell survival, read-out: Ht22/GLU (Example B.2) IC50)	pIC50 ([3]; BSO 50 μM, cell survival (AquaBluer), read-out: SH-SY5Y/BSO (Example B.1) IC50)
CC(=O)NC1CCC2(CC1)Nc1ccccc1N=C2NCc1cccc(Cl)c1 (stereo not drawn) [C-111]	> 6.00	> 6.00	10000 to 20000 nM	> 6.30	–	–
Clc1cccc(CNC2=Nc3cc4c(cc3NC23CCNCC3)OCCO4)c1 [N-219]	> 6.00	> 6.00	20000 to 50000 nM	> 6.30	–	–
FC(F)(F)c1cccc2c1N=C(NCc1ccccc1)C1(CCCCC1)N2 [C-254]	> 6.30	> 6.30	5000 to 10000 nM	> 7.30	–	–
Fc1cc2c(cc1F)NC1(CCCCC1)C(NCc1cccc(Cl)c1)=N2 [C-137]	> 6.70	> 6.70	10000 to 20000 nM	> 6.70	–	–
Clc1cccc(CNC2=Nc3ccccc3NC23CCCCCC3)c1 [C-216]	> 6.30	> 7.00	10000 to 20000 nM	> 7.30	–	–
Clc1cc2c(cc1Cl)NC1(CCCCC1)C(NCc1ccccc1)=N2 [C-217]	> 6.70	> 7.30	20000 to 50000 nM	> 7.30	–	–
FC(F)(F)c1cccc(CNC2=Nc3cc(Cl)c(Cl)cc3NC23CCCCC3)c1 [C-264]	> 6.30	> 6.30	10000 to 20000 nM	> 7.30	–	–
Clc1ccc2c(c1)N=C(NCc1ccccc1)C1(CCCCC1)N2 [C-258]	> 6.30	> 6.70	10000 to 20000 nM	> 7.30	–	–
Fc1ccc(CNC2=Nc3ccccc3NC23CCOCC3)cc1 [O/S-6]	> 6.30	> 6.00	50000 to 100000 nM	> 6.30	6.66	7.17
Clc1ccc(CNC2=Nc3ccccc3NC23CCNCC3)cc1 [N-3]	> 7.30	> 8.00	5000 to 10000 nM	> 7.30	–	–
Fc1cc2c(cc1F)NC1(CCNCC1)C(NCc1ccccc1)=N2 [N-223]	> 7.30	> 7.30	20000 to 50000 nM	> 7.30	–	–
FC1(F)Oc2cc3c(cc2O1)NC1(CCCCC1)C(NCc1ccccc1)=N3 [C-256]	> 6.70	> 7.00	20000 to 50000 nM	> 7.30	–	–
c1ccc(CNC2=Nc3cc4c(cc3NC23CCCCC3)OCCO4)cc1 [C-223]	> 6.00	> 6.70	20000 to 50000 nM	> 6.30	–	–
Clc1cccc(CNC2=Nc3ccccc3NC23CCCCC3)c1 [C-2]	> 6.30	> 7.00	10000 to 20000 nM	> 7.00	–	–
Clc1ccc(CNC2=Nc3ccccc3NC23CCCCC3)cc1Cl [C-228]	> 6.30	> 7.30	20000 to 50000 nM	> 7.30	–	–
O=S1(=O)CCC2(CC1)Nc1ccccc1N=C2NCc1ccccc1 [O/S-363]	> 5.30	> 5.70	10000 to 20000 nM	> 5.70	–	–
CC1(C)CCC2(CC1)Nc1ccccc1N=C2NCc1ccccc1 [C-253]	> 6.00	> 6.00	10000 to 20000 nM	> 7.00	–	–
Cc1cc2c(cc1C)NC1(CCNCC1)C(NCc1ccccc1)=N2 [N-210]	> 7.30	> 8.00	2000 to 5000 nM	> 7.30	–	–
CC(=O)N1CCC2(CC1)Nc1ccccc1N=C2NCc1cccc(Cl)c1 [N-99]	> 6.00	> 6.00	50000 to 100000 nM	> 6.70	–	–
Cc1cc(C)cc(CNC2=Nc3cc(Cl)c(Cl)cc3NC23CCCCCC3)c1 [C-262]	> 6.30	> 6.30	10000 to 20000 nM	> 7.00	–	–
Clc1ccc(CNC2=Nc3ccccc3NC23CCOCC3)cc1Cl [O/S-345]	> 6.30	> 7.00	20000 to 50000 nM	> 7.00	–	–
Fc1cc(Cl)ccc1CNC1=Nc2ccccc2NC12CCNCC2 [N-61]	> 7.30	> 7.30	20000 to 50000 nM	> 7.30	–	–
